These results are taken from patent US8927587B2, “Chemical compounds” (Pfizer Limited, priority 2012, dated 2015).

The target in the test is T1, hNav1.8 (Homo sapiens, UniProt Q9Y5Y9).
T1 construct: host or cells: HEK cells, stably transfected
Nature of the test: hNav1.8 whole-cell patch-clamp electrophysiology (conventional or PatchXpress 7000) in stably transfected HEK cells. Format: cell-based. Particulars: estimated IC50 calculated from single point % inhibition; HEK cells expressing hNav1.8; 8 sec prepulse to V1/2, 20 msec step to 0 mV; average of replicates; read-out: Nav1.8 EIC50. The text has this:
The ability of the benzimidazole derivatives of the formula (I) to inhibit the Nav1.8 channel may be measured using the assay described below.
HEK cells stably transfected with hNav1.8, purchased from Millipore (Millipore Corp., Billerica, Mass. 01821), were maintained according to manufacturer's instructions. For electrophysiological studies, cells were removed from the culture flask by brief trypsinization and re-plated at low density onto glass cover slips. Cells were typically used for electrophysiological experiments within 24 to 72 h after plating.
Cover slips containing HEK cells expressing hNav1.8 were placed in a bath on the stage of an inverted microscope and perfused (approximately 1 ml/min) with extracellular solution of the following composition: 138 mM NaCl, 2 mM CaCl2, 5.4 mM KCl, 1 mM MgCl2, 10 mM glucose, and 10 mM HEPES, pH 7.4, with NaOH. […] The osmolarity of the extracellular and intracellular solutions was 300 mOsm/kg and 295 mOsm/kg, respectively. All recordings were made at room temperature (22-24° C.) using AXOPATCH 200B amplifiers and PCLAMP software (Axon Instruments, Burlingame, Calif.).
hNav1.8 currents in HEK cells were measured using the whole-cell configuration of the patch-clamp technique (Hamill et al., 1981). Uncompensated series resistance was typically 2 to 5 mega ohms and >85% series resistance compensation was routinely achieved. As a result, voltage errors were negligible and no correction was applied. Current records were acquired at 20 to 50 KHz and filtered at 5 to 10 KHz.
HEK cells stably transfected with hNav1.8 were viewed under Hoffman contrast optics and placed in front of an array of flow pipes emitting either control or compound-containing extracellular solutions. All compounds were dissolved in dimethyl sulfoxide to make 10 mM stock solutions, which were then diluted into extracellular solution to attain the final concentrations desired.
The voltage-dependence of inactivation was determined by applying a series of depolarizing prepulses (8 sec long in 10 mV increments) from a negative holding potential. The voltage was then immediately stepped to 0 mV to assess the magnitude of the sodium current. Currents elicited at 0 mV were plotted as a function of prepulse potential to allow estimation of the voltage at which 50% of the channels were inactivated (midpoint of inactivation or V1/2). Compounds were tested for their ability to inhibit hNav1.8 sodium channels by activating the channel with a 20 msec voltage step to 0 mV following an 8 second conditioning prepulse to the empirically determined V1/2. Compound effect (% inhibition) was determined by difference in current amplitude before and after application of test compounds. For ease of comparison, “estimated IC50” values were calculated from single point electrophysiology data by the following equation, (tested concentration, uM)×(100-% inhibition/% inhibition). Inhibition values<20% and >80% were excluded from the calculation.
In some cases electrophysiological assays were conducted with PatchXpress 7000 hardware and associated software (Molecular Devices Corp). All assay buffers and solutions were identical to those used in conventional whole-cell voltage clamp experiments described above. hNav1.8 cells were grown as above to 50%-80% confluency and harvested by trypsinization. Trypsinized cells were washed and resuspended in extracellular buffer at a concentration of 1×10^6 cells/ml. The onboard liquid handling facility of the PatchXpress was used for dispensing cells and application of test compounds. Determination of the voltage midpoint of inactivation was as described for conventional whole-cell recordings. Cells were then voltage-clamped to the empirically determined V1/2 and current was activated by a 20 msec voltage step to 0 mV.
Estimated IC50 values for the compounds of formula (I) exemplified above are as follows. […]

T1 sequence (Q9Y5Y9 whole entry): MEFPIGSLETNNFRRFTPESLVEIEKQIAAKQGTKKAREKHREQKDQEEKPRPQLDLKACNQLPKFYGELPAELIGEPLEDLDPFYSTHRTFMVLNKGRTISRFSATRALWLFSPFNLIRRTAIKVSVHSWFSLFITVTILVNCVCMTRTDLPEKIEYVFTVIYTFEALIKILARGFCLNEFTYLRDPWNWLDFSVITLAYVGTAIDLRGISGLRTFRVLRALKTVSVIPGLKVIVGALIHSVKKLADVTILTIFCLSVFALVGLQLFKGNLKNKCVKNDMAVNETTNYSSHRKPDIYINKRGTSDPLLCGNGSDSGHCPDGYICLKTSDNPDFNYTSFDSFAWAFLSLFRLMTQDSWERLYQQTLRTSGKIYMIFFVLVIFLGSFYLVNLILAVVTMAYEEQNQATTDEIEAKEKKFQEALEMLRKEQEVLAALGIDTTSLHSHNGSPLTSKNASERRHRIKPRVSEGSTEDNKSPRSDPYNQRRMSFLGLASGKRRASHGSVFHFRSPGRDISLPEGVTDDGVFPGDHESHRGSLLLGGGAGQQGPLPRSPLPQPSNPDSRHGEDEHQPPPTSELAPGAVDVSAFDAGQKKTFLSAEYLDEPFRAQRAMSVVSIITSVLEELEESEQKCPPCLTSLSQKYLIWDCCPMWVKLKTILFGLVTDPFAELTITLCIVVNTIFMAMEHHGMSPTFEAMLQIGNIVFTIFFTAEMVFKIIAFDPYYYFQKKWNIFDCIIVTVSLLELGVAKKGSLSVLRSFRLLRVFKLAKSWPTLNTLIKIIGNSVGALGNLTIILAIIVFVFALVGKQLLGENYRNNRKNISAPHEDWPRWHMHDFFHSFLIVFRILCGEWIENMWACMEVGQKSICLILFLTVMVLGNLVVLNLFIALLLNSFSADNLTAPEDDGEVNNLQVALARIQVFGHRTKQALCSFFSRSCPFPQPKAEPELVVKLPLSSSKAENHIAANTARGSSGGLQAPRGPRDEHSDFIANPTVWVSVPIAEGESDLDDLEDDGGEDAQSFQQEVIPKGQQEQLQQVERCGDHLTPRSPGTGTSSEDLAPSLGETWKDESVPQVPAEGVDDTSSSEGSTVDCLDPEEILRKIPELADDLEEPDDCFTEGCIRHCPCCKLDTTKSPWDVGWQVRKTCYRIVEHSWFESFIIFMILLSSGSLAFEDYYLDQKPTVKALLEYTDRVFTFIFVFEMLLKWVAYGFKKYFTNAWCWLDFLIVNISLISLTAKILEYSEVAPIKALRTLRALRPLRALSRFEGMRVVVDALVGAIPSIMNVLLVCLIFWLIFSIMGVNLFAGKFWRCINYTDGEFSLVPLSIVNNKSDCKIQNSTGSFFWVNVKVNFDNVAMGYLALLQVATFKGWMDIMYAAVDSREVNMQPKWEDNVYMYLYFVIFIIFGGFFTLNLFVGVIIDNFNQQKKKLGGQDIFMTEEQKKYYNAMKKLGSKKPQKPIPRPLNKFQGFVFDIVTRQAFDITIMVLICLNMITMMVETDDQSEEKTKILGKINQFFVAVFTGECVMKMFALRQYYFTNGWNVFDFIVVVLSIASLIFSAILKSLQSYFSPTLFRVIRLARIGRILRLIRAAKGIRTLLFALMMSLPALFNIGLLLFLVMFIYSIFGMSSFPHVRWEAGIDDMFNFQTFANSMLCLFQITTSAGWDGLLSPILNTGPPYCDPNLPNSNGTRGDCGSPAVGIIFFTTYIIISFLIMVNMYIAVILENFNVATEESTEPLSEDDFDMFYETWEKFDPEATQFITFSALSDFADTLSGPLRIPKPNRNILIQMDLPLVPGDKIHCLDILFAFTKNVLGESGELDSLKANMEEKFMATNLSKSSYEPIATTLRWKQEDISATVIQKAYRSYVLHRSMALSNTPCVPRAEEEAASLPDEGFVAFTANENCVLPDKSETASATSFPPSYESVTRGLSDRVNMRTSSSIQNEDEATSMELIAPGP

In the case of `CN[C@H](c1nc2cc(C(C)(C)C)ccc2[nH]1)[C@@H](C)O` [Example 79, (1R,2R)-1-(5-tert-Butyl-1H-benzimidazol-2-yl)-1-(methylamino)propan-2-ol], the IC50 was 168 nM. For `CC(C)(C)c1ccc2[nH]c([C@@H](N)COC(N)=O)nc2c1` [Example 143, (R)-2-Amino-2-(5-(tert-butyl)-1H-benzo[d]imidazol-2-yl)ethyl carbamate], the IC50 is 85.2 nM. As for `CO[C@H](C)[C@@H](N)c1nc2cc(C(C)(C)C)ccc2[nH]1` [Example 83, (1S,2R)-1-(5-tert-Butyl-1H-benzimidazol-2-yl)-2-methoxypropan-1-amine], the IC50 is 872 nM. To `C[C@@H](C(N)=O)[C@H](N)c1cn2cc(-c3ccc(C#N)cc3)ccc2n1` [Example 156, (2R,3S)-3-Amino-3-[6-(4-cyanophenyl)imidazo[1,2-a]pyridin-2-yl]-2-methylpropanamide] belongs 54.6 nM. On to `CO[C@@H](C)[C@H](N)c1nc2cc(C(C)(C)C)ccc2[nH]1` [Example 128, (1R,2S)-1-(5-tert-Butyl-1H-benzimidazol-2-yl)-2-methoxypropan-1-amine], for which the IC50 is 368 nM. To `CC(C)c1ccc2[nH]c([C@@H](N)CC(N)=O)nc2c1` [Example 95, (3S)-3-Amino-3-[5-(propan-2-yl)-1H-benzimidazol-2-yl]propanamide] belongs 3310 nM; to `CC(C)(C)[C@@H](N)c1nc2cc(-c3ccc(C#N)cc3)ccc2[nH]1` [Example 48, 4-{2-[(1R)-1-Amino-2,2-dimethylpropyl]-1H-benzimidazol-5-yl}benzonitrile], 469 nM; to `COC(C)(C)C(N)c1nc2cc(-c3ccc(C#N)cc3)ccc2[nH]1` (centres unmarked) [Example 142, 4-[2-(1-Amino-2-methoxy-2-methylpropyl)-1H-benzimidazol-5-yl]benzonitrile], 1840 nM. In the case of `C[C@@H](O)[C@H](N)c1nc2cc(-c3ccc(C#N)cc3Cl)ccc2[nH]1` [Example 122, 4-{2-[(1R,2R)-1-Amino-2-hydroxypropyl]-1H-benzimidazol-6-yl}-3-chlorobenzonitrile], the IC50 is 326 nM. To `C[C@@H](C(N)=O)[C@H](N)c1cn2cc(C(C)(C)C)ccc2n1` [Example 157, (2R,3S)-3-Amino-3-(6-tert-butylimidazo[1,2-a]pyridin-2-yl)-2-methylpropanamide] belongs 44.5 nM.

`CC(C)[C@@H](N)c1nc2cc(C(C)(C)C)ccc2[nH]1` [Example 9, (1R)-1-(5-tert-Butyl-1H-benzimidazol-2-yl)-2-methylpropan-1-amine]: the IC50 was 347 nM. To `CO[C@H](C)[C@H](N)c1nc2cc(C3CCCC3)ccc2[nH]1` [Example 145, (1R,2R)-1-(5-Cyclopentyl-1H-benzo[d]imidazol-2-yl)-2-methoxypropan-1-amine] belongs 284 nM. With `C[C@H](OC(N)=O)[C@H](N)c1nc2cc(C(C)(C)C)ccc2[nH]1` [Example 106, (1R,2S)-1-Amino-1-(5-tert-butyl-1H-benzimidazol-2-yl)propan-2-yl carbamate] the figure was 35 nM; with `C[C@@H](C(N)=O)[C@H](N)c1nc2c(Cl)c(-c3ccc(C#N)cc3)ccc2[nH]1` [Example 111, (2R,3S)-3-Amino-3-[4-chloro-5-(4-cyanophenyl)-1H-benzimidazol-2-yl]-2-methylpropanamide], 190 nM; with `N#Cc1ccc(-c2ccc3[nH]c([C@@H](N)CC(N)=O)nc3c2)cc1` [Example 45, (3S)-3-Amino-3-[5-(4-cyanophenyl)-1H-benzimidazol-2-yl]propanamide], 203 nM. To `CO[C@H](C)[C@H](N)c1nc2cc(-c3ccc(C#N)cc3)ccc2[nH]1` [Example 92, 4-{2-[(1R,2R)-1-Amino-2-methoxypropyl]-1H-benzimidazol-5-yl}benzonitrile] belongs 17.5 nM; to `CO[C@H](C)[C@H](N)c1nc2cc(-c3cc(F)c(C#N)c(F)c3)ccc2[nH]1` [Example 87, 4-{2-[(1R,2R)-1-Amino-2-methoxypropyl]-1H-benzimidazol-5-yl}-2,6-difluorobenzonitrile], 1330 nM.

For the compound `C[C@H](OC(N)=O)[C@H](N)c1nc2cc(C34CC5CC(CC(C5)C3)C4)ccc2[nH]1` [Example 151, (1R,2S)-1-(5-((3R,5R,7R)-Adamantan-1-yl)-1H-benzo[d]imidazol-2-yl)-1-aminopropan-2-yl carbamate], the IC50 is 45.2 nM. To `N#Cc1ccc(-c2ccc3[nH]c(C4(N)CCCC4)nc3c2)cc1` [Example 59, 4-[2-(1-aminocyclopentyl)-1H-benzimidazol-5-yl]benzonitrile] belongs 105 nM. With `[2H][13C]([2H])([2H])[C@@H](C(N)=O)[C@H](N)c1nc2cc(C(C)(C)C)ccc2[nH]1` [Example 105, (2R,3S)-3-Amino-3-(5-tert-butyl-1H-benzimidazol-2-yl)-2-(^13CD3-methyl)propanamide] the figure was 69.9 nM.

As for `C[C@@H](O)[C@@H](N)c1nc2cc(C(C)(C)C)ccc2[nH]1` [Example 18, (1S,2R)-1-Amino-1-(5-tert-butyl-1H-benzimidazol-2-yl)propan-2-ol], the IC50 is 487 nM.

For the compound `N#Cc1ccc(-c2ccc3[nH]c([C@H](N)CC(N)=O)nc3c2)cc1` [Example 44, (3R)-3-Amino-3-[5-(4-cyanophenyl)-1H-benzimidazol-2-yl]propanamide], the IC50 was 890 nM. On to `COC[C@H](N)c1nc2cc(-c3ccc(C#N)cc3)ccc2[nH]1` [Example 153, 4-{2-[(1R)-1-Amino-2-methoxyethyl]-1H-benzimidazol-5-yl}benzonitrile], for which the IC50 was 96.3 nM.

Consider `CC(C)(C)c1ccc2[nH]c([C@H]3C[C@@H](O)CN3)nc2c1` [Example 24, (3R,5R)-5-(5-tert-Butyl-1H-benzimidazol-2-yl)pyrrolidin-3-ol], for which the IC50 is 58 nM. As for `CC(C)(C)Cc1ccc2[nH]c(C(C)(N)CO)nc2c1` (centres unmarked) [Example 115, 2-Amino-2-[6-(2,2-dimethylpropyl)-1H-benzimidazol-2-yl]propan-1-ol], the IC50 was 278 nM.

For `C[C@@H](O)[C@H](N)c1nc2c(Cl)c(-c3ccc(C#N)cc3)ccc2[nH]1` [Example 99, 4-{2-[(1R,2R)-1-Amino-2-hydroxypropyl]-4-chloro-1H-benzimidazol-5-yl}benzonitrile], the IC50 was 2490 nM. Take `C[C@@H](O)[C@@H](N)c1nc2cc(-c3ccc(C#N)cc3)ccc2[nH]1` [Example 137, 4-{2-[(1S,2R)-1-Amino-2-hydroxypropyl]-1H-benzimidazol-5-yl}benzonitrile]: the IC50 was 915 nM. For `CC(C)(C)c1ccc2[nH]c([C@@H]3C[C@H](O)CN3)nc2c1` [Example 22, (3S,5S)-5-(5-tert-Butyl-1H-benzimidazol-2-yl)pyrrolidin-3-ol], the IC50 was 108 nM. With `CC(C)(C)c1ccc2[nH]c([C@@H]3C[C@H](F)CN3)nc2c1` [Example 132, 5-tert-Butyl-2-[(2S,4S)-4-fluoropyrrolidin-2-yl]-1H-benzimidazole] the figure was 191 nM. As to `CC(C)(N)c1nc2cc(C3CCCCC3)ccc2[nH]1` [Example 66, 2-(5-Cyclohexyl-1H-benzimidazol-2-yl)propan-2-amine], the IC50 is 1000 nM. With `CC(C)(C)c1ccc2[nH]c([C@@H](N)C3CCCC3)nc2c1` [Example 3, (S)-1-(5-tert-Butyl-1H-benzimidazol-2-yl)-1-cyclopentylmethanamine] the figure was 12.5 nM; with `CC(C)(C)c1ccc2[nH]c(C3(N)CCC3)nc2c1` [Example 4, 1-(5-tert-Butyl-1H-benzimidazol-2-yl)cyclobutanamine], 447 nM.
